Among the data in patent publication US20040192771A1, “Ether compounds and compositions for cholesterol management and related uses” (priority 2001, published 2004) are IC50 and change in vivo values, retold here.

In test [1] the test system is primary rat hepatocytes. Nature of the test: Inhibition of lipid synthesis ([1-14C]-acetate incorporation) in primary cultures of rat hepatocytes. Type of test: cell-based. The note with it: Hepatocyte, total lipid synthesis, 4 hours incubation. The procedure:
Compounds were tested for inhibition of lipid synthesis in primary cultures of rat hepatocytes. Male Sprague-Dawley rats were anesthetized with intraperitoneal injection of sodium pentobarbital (80 mg/kg). Rat hepatocytes were isolated essentially as described by the method of Seglen (Seglen, P. O. Hepatocyte suspensions and cultures as tools in experimental carcinogenesis. J. Toxicol. Environ. Health 1979, 5, 551-560). Hepatocytes were suspended in Dulbecco's Modified Eagles Medium containing 25 mM D-glucose, 14 mM HEPES, 5 mM L-glutamine, 5 mM leucine, 5 mM alanine, 10 mM lactate, 1 mM pyruvate, 0.2% bovine serum albumin, 17.4 mM non-essential amino acids, 20% fetal bovine serum, 100 nM insulin and 20 μg/mL gentamycin) and plated at a density of 1.5×10^5 cells/cm^2 on collagen-coated 96-well plates. Four hours after plating, media was replaced with the same media without serum. Cells were grown overnight to allow formation of monolayer cultures. Lipid synthesis incubation conditions were initially assessed to ensure the linearity of [1-^14C]-acetate incorporation into hepatocyte lipids for up to 4 hours. Hepatocyte lipid synthesis inhibitory activity was assessed during incubations in the presence of 0.25 μCi [1-^14C]-acetate/well (final radiospecific activity in assay is 1 Ci/mol) and 0, 1, 3, 10, 30, 100 or 300 μM of compounds for 4 hours. At the end of the 4-hour incubation period, medium was discarded and cells were washed twice with ice-cold phosphate buffered saline and stored frozen prior to analysis. To determine total lipid synthesis, 170 μl of MicroScint-E® and 50 μl water was added to each well to extract and partition the lipid soluble products to the upper organic phase containing the scintillant. Lipid radioactivity was assessed by scintillation spectroscopy in a Packard TopCount NXT.

Test [2] deals with obese female Zucker rats. As to the kind of experiment: Oral daily treatment of obese female Zucker rats for fourteen days; serum lipids and glycemic control indicators. Type of test: in vivo. The note with it: Rattus norvegicus, percent change from study prebleed; for change in vivo at 30 mg/kg/day: 30 mg/kg/day oral; for change in vivo at 70 mg/kg/day: 70 mg/kg/day oral; for change in vivo at 90 mg/kg/day: 90 mg/kg/day oral; for change in vivo at 100 mg/kg/day: 100 mg/kg/day oral. The procedure:
In a number of different experiments, illustrative compounds of the invention are administered daily at a dose of up to 100 mg/kg to chow fed obese female Zucker rats for fourteen days in the morning by oral gavage in 1.5% carboxymethylcellulose/0.2% Tween 20 or 20% ethanol/80% polyethylene glycol (dosing vehicles). Animals are weighed daily. Animals are allowed free access to rodent chow and water throughout the study except on days of blood sampling where food is restricted for six hours prior to blood sampling. Blood glucose is determined after the 6 hour fast in the afternoon without anesthesia from a tail vein. Serum is also prepared from pretreatment blood samples subsequently obtained from the orbital venous plexus (with O2/CO2 anesthesia) and following the fourteenth dose at sacrifice from the heart following O2/CO2 anesthesia. Serums are assayed for lipoprotein cholesterol profiles, triglycerides, total cholesterol, Non HDL cholesterol, HDL cholesterol, the ratio of HDL cholesterol to that of Non HDL cholesterol, insulin, non esterified fatty acids, and beta hydroxy butyric acid. The percent body weight gain and the ratio of liver to body weight is also determined. These are shown as absolute values or as a percent change of the pretreatment values in Table C. [drawing 479] [drawing 480]

Where [3] appears, read: 168 h, week 1, read-out: Glucose.
Setting [4] is: 168 h, week 1, read-out: Insulin.
[5] abbreviates: 168 h, week 1, read-out: Non-HDL-C.
[6] abbreviates: 336 h, week 2, read-out: Glucose.
The mark [7] stands for this setting: 336 h, week 2, read-out: Insulin.
The mark [8] stands for this setting: 336 h, week 2, read-out: Non-HDL-C.

Where two headings read alike, the source gives them in different places.

Molecule `CC(C)(CO)CCCCCOCCCCC(C)(C)CO` [Compound 130, 7-(6-Hydroxy-5,5-dimethylhexyloxy)-2,2-dimethylheptan-1-ol] registered an IC50 in test [1] of 8.4 µM. Also, the change in vivo at 30 mg/kg/day in test [2] (setting [3]) is 6%; in test [2] (168 h, week 1, read-out: HDL-C), 71%; in test [2] (setting [4]), 25%; in test [2] (setting [5]), -26%; in test [2] (168 h, week 1, read-out: TC), 41%; in test [2] (168 h, week 1, read-out: TG), -66%. The change in vivo at 30 mg/kg/day in test [2] (setting [6]) is 6%; in test [2] (336 h, week 2, read-out: HDL-C) it was 105%; in test [2] (setting [7]) it was 13%; in test [2] (setting [8]), 17%; in test [2] (336 h, week 2, read-out: TC), 77%; in test [2] (336 h, week 2, read-out: TG) it was -47%.
In test [1], `CC(CO)(CCCCOCCCCC(C)(CO)c1ccccc1)c1ccccc1` (stereo not shown) [Compound 111, 6-(6-Hydroxy-5-methyl-5-phenylhexyloxy)-2-methyl-2-phenylhexan-1-ol] came in with an IC50 of 106 µM. Besides, the change in vivo at 30 mg/kg/day in test [2] (168 h, week 1, read-out: HDL-C) is -4%; in test [2] (setting [4]) it was -37%; in test [2] (setting [5]) it was -33%; in test [2] (168 h, week 1, read-out: TC) it was -17%; in test [2] (168 h, week 1, read-out: TG), -14%; in test [2] (setting [6]), -18%. Moreover, the change in vivo at 30 mg/kg/day in test [2] (336 h, week 2, read-out: HDL-C) is -28%; in test [2] (setting [7]), -36%; in test [2] (setting [8]), -1%; in test [2] (336 h, week 2, read-out: TC), -20%; in test [2] (336 h, week 2, read-out: TG), -7%.
Molecule `CC(C)(Cc1cccc(Oc2cccc(CC(C)(C)C(=O)O)c2)c1)C(=O)O` [Compound 135, 3-{3-[3-(2-Carboxy-2-methylpropyl)-phenoxy]-phenyl}-2,2-dimethylpropionic acid] returned an IC50 in test [1] of 52 µM. Further, the change in vivo at 70 mg/kg/day was -13% in test [2] (setting [3]); 63% in test [2] (168 h, week 1, read-out: HDL-C); -43% in test [2] (setting [4]); -53% in test [2] (setting [5]); 3% in test [2] (168 h, week 1, read-out: TC); -45% in test [2] (168 h, week 1, read-out: TG). The change in vivo at 70 mg/kg/day in test [2] (setting [6]) was -16%; in test [2] (336 h, week 2, read-out: HDL-C) it was 31%; in test [2] (setting [7]), 1%; in test [2] (setting [8]) it was -41%; in test [2] (336 h, week 2, read-out: TC), -7%; in test [2] (336 h, week 2, read-out: TG), -52%.
`CC(C)(CO)Cc1cccc(Oc2cccc(CC(C)(C)CO)c2)c1` [Compound 136, 3-{3-[3-(3-Hydroxy-2,2-dimethylpropyl)-phenoxy]-phenyl}-2,2-dimethylpropan-1-ol] yielded an IC50 in test [1] of 98 µM. Moreover, the change in vivo at 90 mg/kg/day in test [2] (setting [3]) is -20%; in test [2] (168 h, week 1, read-out: HDL-C) it was 22%; in test [2] (setting [4]), -57%; in test [2] (setting [5]), -12%; in test [2] (168 h, week 1, read-out: TC), 1%; in test [2] (168 h, week 1, read-out: TG), 13%. Besides, the change in vivo at 90 mg/kg/day in test [2] (setting [6]) is -3%; in test [2] (336 h, week 2, read-out: HDL-C), -4%; in test [2] (setting [7]) it was -45%; in test [2] (setting [8]), 23%; in test [2] (336 h, week 2, read-out: TC) it was 9%; in test [2] (336 h, week 2, read-out: TG) it was 18%.
Take `CC(C)(CO)CCCCCOCCCCCC(C)(C)CO` [Compound 131, 7-(7-Hydroxy-6,6-dimethylheptyloxy)-2,2-dimethylheptan-1-ol]: the IC50 in test [1] was 3.8 µM. Also, the change in vivo at 100 mg/kg/day in test [2] (setting [3]) was -6%; in test [2] (168 h, week 1, read-out: HDL-C), 292%; in test [2] (setting [4]), 40%; in test [2] (setting [5]) it was -79%; in test [2] (168 h, week 1, read-out: TC), 85%; in test [2] (168 h, week 1, read-out: TG), -91%. In addition, the change in vivo at 100 mg/kg/day in test [2] (setting [6]) was -5%; in test [2] (336 h, week 2, read-out: HDL-C), 289%; in test [2] (setting [7]) it was -1%; in test [2] (setting [8]) it was -57%; in test [2] (336 h, week 2, read-out: TC), 106%; in test [2] (336 h, week 2, read-out: TG) it was -88%.
